Results as given in PubChem BioAssay (NCI).
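In this assay, cells in 96-well plates receive the compound at five concentrations for 48 hours. Endpoints are linearly interpolated between the surrounding concentrations. At the GI50, growth is halved. TGI: concentration producing complete growth inhibition.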

Experiments:
Test in all cases: NCI tumour cell line growth inhibition, 48 h
SF-539 CNS = test system: SF-539 CNS
MOLT-4 leukemia = test system: MOLT-4 leukemia
MDA-MB-231 breast = test system: MDA-MB-231 breast
HOP-62 NSCLC = test system: HOP-62 NSCLC
SNB-19 CNS = test system: SNB-19 CNS
HT29 colon = test system: HT29 colon
HOP-92 NSCLC = test system: HOP-92 NSCLC
HCT-15 colon = test system: HCT-15 colon
COLO 205 colon = test system: COLO 205 colon
NCI-H23 lung = test system: NCI-H23 lung

Row | SMILES | GI50 (SF-539 CNS) [µM] | TGI (SF-539 CNS) [µM] | GI50 (MOLT-4 leukemia) [µM] | TGI (MOLT-4 leukemia) [µM] | GI50 (MDA-MB-231 breast) [µM] | TGI (MDA-MB-231 breast) [µM] | GI50 (HOP-62 NSCLC) [µM] | TGI (HOP-62 NSCLC) [µM] | GI50 (SNB-19 CNS) [µM] | TGI (SNB-19 CNS) [µM] | GI50 (HT29 colon) [µM] | TGI (HT29 colon) [µM] | GI50 (HOP-92 NSCLC) [µM] | TGI (HOP-92 NSCLC) [µM] | TGI (HCT-15 colon) [µM] | GI50 (COLO 205 colon) [µM] | TGI (COLO 205 colon) [µM] | GI50 (NCI-H23 lung) [µM] | TGI (NCI-H23 lung) [µM] | GI50 (HCT-15 colon) [µM]
1 | COc1ccc2c(c1)/C(=C\c1c(-c3ccccc3)nc3sccn13)C(=O)N2 | 8.23 | 20.5 | 12.5 | > 44.5 | 6.92 | 23.5 | 2.42 | 14.9 | > 21.5 | > 58.3 | 8.17 | > 40.7 | > 100 | > 100 | > 35.6 | 18.7 | 45.8 | 1.97 | 6.85 | –
2 | COc1ccc(OC)c(-c2cc(-c3ccc(Cl)cc3)nn2-c2ccccc2)c1 | 36 | 95.2 | 8.7 | > 100 | 17.8 | 80 | – | – | – | – | – | – | 29.3 | > 100 | > 100 | – | – | 27.7 | > 100 | 34.2
3 | CCCCCCCC(=O)Nc1nc2[nH]c(CN3CCN(Cc4cccc(I)c4)CC3)c(CN3CCN(Cc4cccc(I)c4)CC3)c2c(=O)[nH]1 | 0.88 | 1.61 | 0.934 | 2.59 | 0.875 | 1.65 | 0.936 | 2.06 | 0.858 | 1.62 | 0.998 | 2.13 | 0.668 | 1.4 | 1.54 | 0.972 | 1.97 | 0.92 | 1.86 | 0.812
4 | Cn1cnc(SC2=CC(=O)C=C3S[C@H]4C[C@@]23c2c(c(O)c3c5c2=NCCC=5C=N3)N4)c1CC(N)C(=O)O (some centres undefined) | 16.6 | 30.8 | 2.99 | 8.98 | 6.6 | 20.3 | – | – | 19.3 | 33.5 | 2.18 | 11.7 | 17.5 | 31.7 | 33.7 | 1.53 | 3.01 | – | 15.2 | 18.4
5 | CCOc1ccc(Nc2ccnc3cc(Cl)ccc23)cc1 | 29.4 | > 100 | > 100 | > 100 | > 100 | > 100 | > 100 | > 100 | > 100 | > 100 | 3.88 | > 100 | 16.1 | > 100 | > 100 | > 100 | > 100 | > 100 | > 100 | 4.38
6 | Oc1cccc2ccc(SSc3ccc4cccc(O)c4n3)nc12 | – | 37.5 | – | > 100 | – | 32.3 | – | 39.9 | – | > 100 | – | 41.5 | – | 55.9 | 53.3 | – | 35.2 | – | 31.2 | –
7 | Cc1ccc(NC(=O)CCc2nnc3s/c(=C\C=C\c4ccccc4)c(=O)n23)cc1 | – | > 100 | – | 79.8 | – | > 100 | – | > 100 | – | > 100 | – | > 100 | – | > 100 | > 100 | – | > 100 | – | > 100 | –
8 | CC1(C)N=C(N)N=C(N)N1c1cccc(CCCCc2ccc(Cl)c(S(=O)(=O)F)c2)c1 | 0.504 | 13 | 1.82 | 19.2 | 11 | 25.8 | 6.34 | 21.2 | 3.3 | 18.4 | 0.441 | 16.3 | 4.7 | 21.4 | > 100 | 1.75 | 18.6 | 2.83 | 18.1 | 6.47
9 | O=C(O)c1nn(-c2ccc(Cl)cc2)c2c1C(=O)c1ccccc1C2=O | – | 67.4 | – | 88 | – | > 100 | – | > 100 | – | > 100 | – | > 100 | – | > 100 | > 100 | – | > 100 | – | > 100 | –
10 | Oc1ccc(Br)cc1C=NC1CCCCC1 | – | > 100 | – | > 100 | – | > 100 | – | > 100 | – | > 100 | – | > 100 | – | > 100 | > 100 | – | > 100 | – | > 100 | –
11 | Cc1cccc2c(=O)c3c(sc12)c(NCCCN)nc1ccccc13 | 1.69 | 3.09 | 1.35 | 3.06 | 1.52 | 3.03 | 1.24 | 2.79 | – | – | – | – | 1.53 | 5.12 | 2.84 | 1.56 | 3.23 | 1.76 | 3.5 | 1.35
12 | COc1cc(/C=C2\C[C@H]3[C@@H]4CC=C5C[C@@H](O)CC[C@]5(C)[C@H]4CC[C@]3(C)[C@H]2O)ccc1OCCN1CCCCC1 | 1.1 | 2.1 | 3.07 | > 50 | 0.605 | 1.39 | 0.799 | 1.68 | 2.17 | > 50 | 1.54 | > 50 | 0.688 | 1.47 | 1.03 | – | – | 1.21 | 3.21 | 0.465
13 | N[C@@H](Cc1c[nH]c2ccccc12)C(=O)NC1CCN(Cc2c[nH]c3ccc(Cl)cc23)CC1 | 5.62 | 20.2 | 2.79 | 9.6 | 2.32 | 6 | 11 | 24.8 | 10.4 | 23.9 | 10.8 | 23.5 | 3.86 | 17.2 | 31 | 2.11 | 4.65 | 15.3 | 30.7 | 16.2
14 | C#Cc1cccc(Nc2nc(C)nc3cc(NC(=O)CCl)ccc23)c1 | 3.34 | 6.6 | 0.719 | 2.27 | 0.886 | 3.92 | 3.65 | 7.85 | 1.29 | 4.29 | 1.06 | 4.15 | 0.67 | 1.89 | 2.64 | 3.26 | 7.41 | 2.35 | 7.03 | 0.687
15 | CC(C)(C)c1cc[n+](C[n+]2ccc(C(C)(C)C)cc2)cc1 | – | > 100 | – | > 100 | – | > 100 | – | > 100 | – | > 100 | – | > 100 | – | > 100 | > 100 | – | > 100 | – | > 100 | –
16 | COc1ccc(NC(=O)c2ccc(C(F)(F)F)nc2Nc2ccc(Cl)cc2C)cc1Cl | 9.01 | 23.5 | 1.56 | 4.93 | 1.64 | 6.82 | 10.7 | 23.9 | 5.45 | 19.7 | 3.57 | 14 | 2.9 | 6.79 | 20.5 | 2.72 | 10.7 | 3.09 | 15.1 | 7.12
17 | NC(=O)c1ccc(I)c([N+](=O)[O-])c1 | > 100 | > 100 | > 71.2 | > 100 | 49.5 | > 100 | > 100 | > 100 | > 100 | > 100 | 58 | > 100 | > 70.6 | > 100 | > 100 | > 100 | > 100 | 76.1 | > 100 | > 77.3
18 | COc1ccc2c(c1)C(=O)/C(=C/c1ccc(O)cc1)O2 | 21.6 | 56.8 | 2.38 | 6.06 | 14.2 | 28.8 | 55.2 | > 100 | 43 | > 100 | 4.14 | 14.8 | 3.37 | 9.65 | 15.8 | 2.77 | 8.97 | 13.9 | 34.4 | 4.2
19 | O=C1CC=C2C3CC4N(CCC45c4ccccc4N1C25)C/C3=C\CO (centres undefined) | – | > 100 | – | > 100 | – | > 100 | – | – | – | > 100 | – | > 100 | – | > 100 | > 100 | – | > 100 | – | > 100 | –
20 | CN1CCN(c2ccncc2S(=O)(=O)N2CCN(C)CC2)CC1 | – | > 100 | – | – | – | > 100 | – | > 100 | – | > 100 | – | > 100 | – | > 100 | > 100 | – | > 100 | – | > 100 | –
21 | Cc1cc2[nH]c(=O)c3c4ncccc4cn3c2cc1C | 1.93 | 3.98 | 3.54 | > 100 | 4.64 | > 100 | 3.81 | 39.4 | 5.48 | > 100 | 2.98 | > 100 | 2.94 | 16.3 | – | – | – | 8.86 | > 100 | –
22 | Cc1cc(C)c([I+]c2c(C)cc(C)cc2C)c(C)c1 | 0.891 | 2.16 | – | – | 0.371 | 1.38 | 0.841 | 2.16 | 0.444 | 1.76 | 0.279 | 1.29 | 0.267 | 1.53 | 6.76 | 0.342 | 1.3 | 0.334 | 1.83 | 2.15
